99 compounds from ChEMBL document CHEMBL3507680, “University of Dundee, Gates Library screen for HepG2 cell viability” can be followed below.

The structures appear in SMILES notation.

This data set can be described thus: Human HepG2 cell viability assay in 384 well format. The format is toxicity, cell-based. More on the design: dose 125 nL, time 70.5 hour; cytotoxicity at 70.5 h: concentration not given beside the values. The note with it: HepG2 cells, read-out: Inhibition.
Consider `N#Cc1c(-c2ccccc2)csc1N`, for which the cytotoxicity at 70.5 h is -22.3%.
As for `COCCn1cc(-c2cc(C(=O)N3CCCC3)c3ccccn23)nc1C`, the cytotoxicity at 70.5 h is -0.704%.
On to `CS(=O)(=O)N1CCOC2(CCCN(c3ncc(F)cn3)C2)C1` (centres undefined), for which the cytotoxicity at 70.5 h was -2.76%.
As for `O=C(N1CCCC1)N1CCC2(CC(=O)N(c3ccc4c(c3)OCO4)C2)C1` (centres undefined), the cytotoxicity at 70.5 h was -2.04%.
With `OCCN1CCOC2(CCCN(c3ncccn3)C2)C1` (centres undefined), the cytotoxicity at 70.5 h is -2.47%.
For the compound `O=C(c1ccno1)N1CCC2(CC(=O)N(c3ccc4c(c3)OCO4)C2)C1` (centres undefined), the cytotoxicity at 70.5 h is -0.613%.
As for `Cc1nc(NC(C)C)nc2c1CN(Cc1nccn1C)CC2`, the cytotoxicity at 70.5 h worked out at 0.21%.
Consider `O=C(c1nc2c(s1)CCCN2CC1CC1)N1CCCC1`, for which the cytotoxicity at 70.5 h was -0.67%.
On to `Cc1cccc(CO[C@H]2CO[C@@]3(CCN(S(=O)(=O)N(C)C)C3)C2)n1`, for which the cytotoxicity at 70.5 h amounted to 15.2%.
In the case of `CC(C)N(C)Cc1noc2c1CN(C(=O)c1cnccn1)CC2`, the cytotoxicity at 70.5 h is -1.15%.
As for `COCCC(=O)N1CC[C@H]2C(=O)N(c3ccsc3)CCO[C@H]2C1`, the cytotoxicity at 70.5 h was -1.99%.
Regarding `CCNC(=O)CC1CC2(CCN(C(C)=O)CC2)c2cc(F)ccc21` (centres undefined), the cytotoxicity at 70.5 h was -5.07%.
With `COCC(=O)N1C[C@@H]2COC[C@]2(COC)C1`, the cytotoxicity at 70.5 h was -9.06%.
In the case of `COC[C@]12COC[C@H]1CN(C(=O)C1CC(F)(F)C1)C2`, the cytotoxicity at 70.5 h was -8.18%.
Take `CCOCc1cnc2n1CCN(C(=O)Cc1cccs1)C2C` (centres undefined): the cytotoxicity at 70.5 h is -7.5%.
`COC1COC2(CCN(C(=O)c3cnc(C)cn3)CC2)C1` (centres undefined): the cytotoxicity at 70.5 h is -6.81%.
For `CCOc1cc(=O)n2c(c1C(=O)OCc1ccc(F)cc1)CCCC2` the value was -8.82%.
For `O=C(NC1CCCC1)N1CCCCC1c1nc(C2CC2)no1` (centres undefined) the value was -15.1%; for `O=C(NCc1ccco1)N1CCCCC1c1nc(C2CC2)no1` (centres undefined), -7.19%.
For `Nc1nc(N2CCCCC2)ncc1C(=O)NCc1ccc(F)c(Cl)c1` the value was -20%; for `CC1CCCN(c2ncc(C(=O)NCc3ccc(F)c(Cl)c3)c(N)n2)C1` (centres undefined), 19.8%; for `CC(C)NC(=O)C1CCN(c2nc3nc[nH]c(=O)c3s2)CC1`, -21.7%.
On to `O=C(C1CCN(c2nc3nc[nH]c(=O)c3s2)CC1)N1CCCCC1`, for which the cytotoxicity at 70.5 h was -15.6%.
As for `O=C(NC1CC1)C1CCN(c2nc3nc[nH]c(=O)c3s2)CC1`, the cytotoxicity at 70.5 h is -20.8%.
Next, `CCNC(=O)c1cc(OC)c2cc(F)cc(C)c2n1`: -12.9%; `COc1ccc(-c2c(C)nn3c(=N)c(C#N)n[nH]c23)cc1`: -12.3%; `Cc1cc(=O)[nH]c(=O)n1COCCOCc1ccccc1`: 25.1%.
For `Cn1cnnc1SCc1cc2c(cc1Cl)OCO2`, the cytotoxicity at 70.5 h is -20.6%.
For `CN(C)CCCNC(=O)c1ccccc1NC(=O)c1cc(Cl)ccc1Cl` the value was -13.9%.
Next, `COc1ccc(OC)c(NC(=O)CSc2ccc3nncn3n2)c1`: -8.56%; `Cc1n[nH]/c(=N\C(=O)c2c3c(nc4onc(C)c24)CCC3)s1`: -13.7%.
On to `O=C(CCn1ccc2cc(Br)ccc21)/N=c1\[nH]nc(C2CCCO2)s1` (centres undefined), for which the cytotoxicity at 70.5 h is -12%.
With `COc1ccc(-c2cc(=O)n3c(n2)CCCCC3)cc1`, the cytotoxicity at 70.5 h is -10.4%.
As for `CN(C)c1ccc(-c2cc(=O)n3c(n2)CCCCC3)cc1`, the cytotoxicity at 70.5 h was -11%.
Regarding `CCOc1ccc(-c2cc(=O)n3c(n2)CCCCC3)cc1`, the cytotoxicity at 70.5 h was -5.56%.
Regarding `COc1ccc(NC(=O)CSc2nncn2-n2cccc2)c(OC)c1`, the cytotoxicity at 70.5 h was -14.5%.
For the compound `CCOc1cccc(CNc2ccccc2C(F)(F)F)c1O`, the cytotoxicity at 70.5 h was determined as 13.7%.
As for `CCOc1cccc(CNc2ccccc2Cl)c1O`, the cytotoxicity at 70.5 h is -4.02%.
Regarding `Cc1c(C)n(Cc2ccncc2)c2nc3c(c(N)c12)CCCC3`, the cytotoxicity at 70.5 h is -7.64%.
Next, `O=C(O)C1CCN(C(=O)CCn2ccc3cc(Br)ccc32)CC1`: -15.9%; `NC(=O)C1CCN(C(=O)Cn2ccc3cc(Br)ccc32)CC1`: -9.96%.
For `CN(C(=O)Cn1nc(-c2ccccc2)ccc1=O)C1CCS(=O)(=O)C1` (centres undefined) the value was -12.1%; for `O=C(NCCCN1CCOCC1)c1nc(-c2ccc3cc[nH]c3c2)no1`, -16.3%; for `O=C(NCCCN1CCCC1=O)c1nc(-c2ccc3cc[nH]c3c2)no1`, -22.5%.
With `Cc1c(C)n(Cc2ccncc2)c2nc3c(c(N)c12)CCCCCC3`, the cytotoxicity at 70.5 h was found to be 30.2%.
Consider `O=c1ccc(-c2cccs2)nn1CN1CCN(C2CCS(=O)(=O)C2)CC1` (centres undefined), for which the cytotoxicity at 70.5 h was -10.9%.
For the compound `O=c1ccc(-c2cccs2)nn1CN1CCOCC1`, the cytotoxicity at 70.5 h was -16.7%.
With `CC(C)c1nnc2ccc(N3CCCC(C(=O)Nc4nccs4)C3)nn12` (centres undefined), the cytotoxicity at 70.5 h was -25.2%.
As for `COc1cccc(N2Cc3nc(=O)n(C(C)C)n3C2=O)c1`, the cytotoxicity at 70.5 h is -13.3%.
As for `CC(C)c1nnc2ccc(N3CCC(C(=O)NC4CC4)CC3)nn12`, the cytotoxicity at 70.5 h is -25%.
For `Cc1oc(-c2nc(C#N)c(N(C)C)o2)cc1S(=O)(=O)N1CCCCCC1` the value was 12.8%.
Next, `Cc1ccc(-c2csc(N)c2C#N)c(C)c1`: -15.8%.
For `O=c1[nH]c2c(c(=O)n1C1CCCCC1)CCC2NCc1ccccc1` (centres undefined) the value was -30.1%.
Consider `O=c1[nH]c2c(c(=O)n1C1CCCCC1)CCC2Nc1ccccn1` (centres undefined), for which the cytotoxicity at 70.5 h came to 20.1%.
With `O=c1[nH]c2c(c(=O)n1C1CCCCC1)CCC2Nc1ccc(Cl)cc1` (centres undefined), the cytotoxicity at 70.5 h is -12.5%.
Next, `COc1ccc(NC2CCc3c2[nH]c(=O)n(C2CCCCC2)c3=O)cc1` (centres undefined): -28.5%.
As to `O=C1C(CS(=O)(=O)Nc2ccc(Br)cc2)=NC(=O)n2cccc21`, the cytotoxicity at 70.5 h was found to be 2.35%.
Next, `Cc1nn(C)c(=O)c2nn(-c3ccc(F)cc3)c(C)c12`: -8.42%; `Cc1cc(SCC(N)=O)nc(-c2cccc(F)c2)n1`: -11.7%; `O=C(c1cnc2ccc(F)cc2c1NCc1ccco1)N1CCCCC1`: -9.21%.
On to `Cc1ccc(Cn2c(=O)[nH]c3csnc3c2=O)cc1`, for which the cytotoxicity at 70.5 h was -13.9%.
Next, `O=C(c1cnc2ccc(F)cc2c1NCc1ccccn1)N1CCCC1`: -17.9%; `CCCN(CCC)c1ncc(S(=O)(=O)c2cccc(C)c2)c(N)n1`: -20.1%; `Cc1c(C(=O)O)cnn1-c1ccc(-c2nc(C(C)C)no2)cn1`: -15.1%.
For `CCCc1noc(-c2ccc(-n3ncc(C(=O)O)c3C)nc2)n1` the value was 23.5%.
As for `Cc1noc(-c2ccc(-n3ncc(C(=O)O)c3C)nc2)n1`, the cytotoxicity at 70.5 h was -5.29%.
As to `Cc1cccc(-c2cc(C(=O)O)sn2)c1`, the cytotoxicity at 70.5 h was -14.1%.
Next, `Cc1c(C(=O)N2CCN(C)CC2)n(C)c2ccc(Cl)cc12`: -11.7%; `CCc1c(C)n(C)c2nc3ccccc3n2c1=O`: 8.75%.
`CCc1c(C)n(CC(=O)OC)c2nc3ccccc3n2c1=O`: the cytotoxicity at 70.5 h is -14.1%.
In the case of `CC1(C)CC(=O)c2cnc3nc(N4CCCC4)[nH]c(=O)c3c2C1`, the cytotoxicity at 70.5 h is -10.4%.
As for `CC1CCN(c2nc3ncc4c(c3c(=O)[nH]2)CC(C)(C)CC4=O)CC1`, the cytotoxicity at 70.5 h was -4.25%.
Next, `O=C(NCCSCc1ccco1)c1ccc(N2CCOCC2)cc1`: -12.3%; `COc1ccc(-n2nc(C(C)=O)c(C(C)=O)c2C)cc1Cl`: 17.1%.
Consider `Cc1ccc(C)c(CSc2nnc(C(N)C(C)C)o2)c1` (centres undefined), for which the cytotoxicity at 70.5 h was -9.25%.
`COc1ccc(CNCC(C)Oc2ccccn2)cc1` (centres undefined): the cytotoxicity at 70.5 h was -18.6%.
Regarding `CC(CNCc1ccc(F)cc1)Oc1ccccn1` (centres undefined), the cytotoxicity at 70.5 h was -17.7%.
For `Cc1c(C(=O)N2CCOCC2)n(C)c2ccc(Cl)cc12`, the cytotoxicity at 70.5 h is -10.5%.
In the case of `CC(=O)N1CCO[C@@H]2CN(C(=O)NCc3cccnc3)CC[C@@H]2C1`, the cytotoxicity at 70.5 h is -2.08%.
As to `CN(C)C[C@H]1OC[C@@H]2CN(C(=O)NCc3cccc(F)c3)CC[C@@H]21`, the cytotoxicity at 70.5 h was -5.06%.
`COCC(=O)NCC1Cn2nnc(-c3ccncc3)c2CO1` (centres undefined): the cytotoxicity at 70.5 h was -3.5%.
As to `CC(C)Nc1nc2c(c(NC3CC3)n1)CCN(Cc1nccn1C)CC2`, the cytotoxicity at 70.5 h was -1.1%.
`O=C1[C@H]2CN(C3CCOC3)C[C@H]2CN1c1ccccc1` (some centres undefined): the cytotoxicity at 70.5 h is -1.16%.
Next, `O=C(NCC1COCc2c(-c3ccncc3)nnn2C1)[C@H]1CCCO1` (some centres undefined): -0.723%; `CN(C)S(=O)(=O)N1CC[C@]2(C[C@H](OCc3ccccn3)CO2)C1`: -0.384%.
For `O=C(CO)N1CCOC2(CCCN(c3ncc(F)cn3)C2)C1` (centres undefined), the cytotoxicity at 70.5 h was -0.965%.
Consider `CN(C)S(=O)(=O)N1CC[C@]2(C[C@@H](OCc3ccccn3)CO2)C1`, for which the cytotoxicity at 70.5 h is -1.04%.
In the case of `CCS(=O)(=O)N1CCC2(CCN(Cc3nccs3)CC2)CC1`, the cytotoxicity at 70.5 h turned out to be 15.2%.
Take `O=C(c1ccsc1)N1CCc2onc(COc3ccccn3)c2C1`: the cytotoxicity at 70.5 h is -1.49%.
Next, `CCOCC(=O)N1CCC2(CC1)COCCN2CCOC`: -1.68%; `O=C(Cc1cccs1)N1CCC2(CC1)COCCN2CC1CC1`: -8.87%.
On to `COCC(=O)N1CCC2(CCN(Cc3ccc(C)cc3)CC2)CC1`, for which the cytotoxicity at 70.5 h is -11.5%.
Next, `O=S(=O)(C1CC1)N1CC[C@@H]2[C@@H]1CCN2Cc1cccs1`: -6.17%; `c1cc(CNCC2Cn3nncc3CO2)co1` (centres undefined): -6.75%; `CCOCc1cnc2n1CCN(Cc1cccs1)C2C` (centres undefined): -8.03%.
On to `COc1cc(N2CCc3ncnc(-c4ccncc4)c3CC2)ncn1`, for which the cytotoxicity at 70.5 h was -6.14%.
For `O=c1ccc2c(n1Cc1cccnc1)CCN(CC1CCOC1)CC2` (centres undefined) the value was -4.17%; for `c1cncc(-c2ccc3c(c2)CCC32CCN(Cc3ccco3)CC2)c1`, -0.391%.
For the compound `C[C@@H]1CN(C2CCOC2)C[C@]12CCN(c1cccnc1)C2=O` (some centres undefined), the cytotoxicity at 70.5 h is -9.89%.
